Laboratory results published in patent US6258780A (priority 1997, dated 2001).
“Also recorded” adds a separate entry of the source.

Key:
hippocampal slices = assay: paired-pulse facilitation in hippocampal slices; type: cell-based
c-fos mRNA [1] = type: cell-based, mouse; settings: with pyridostigmine 1 mM, 1 hour; BAPTA-AM 1 uM or TTX
ChAT or VAChT mRNA = type: cell-based, mouse; settings: with pyridostigmine 1 mM, 1 hour; BAPTA-AM 1 uM or TTX
[2] = BBB permeability to Evans Blue following stress, adrenaline or atropine (Example 2)
[3] = brain penetration of Evans-blue dye following stress; settings: stressed versus control
[4] = tested on: hippocampal slices, CA1 area; type: cell-based
[5] = tested on: serum butyrylcholinesterase (BuChE); assay: serum BuChE activity after injection in mice; type: in vivo, mouse; settings: for reduction of serum BuChE activity from normal levels: non-stressed mice, 0.1 mg/kg i.p., 10 minutes, 3 animals/group
Protocol: Symptoms were reported at the end of the study.
Stress Induction: Stress was induced in adult FVB/N mice by 2×4 minute forced swim with a 4 minute rest interval in a 60×60 cm water bath at about 21° C., adapted from Melia et al, [1994]. […] Animals were decapitated 10 minutes following injection, trunk blood was collected [Melia et al, 1994], and cerebral cortex was quickly dissected and homogenized in solution D (10 mM Tris-HCl, pH 7.4, 1M NaCl, 1% Triton-X100, 1 mM EDTA, 1:10 weight/volume)[Neville et al, 1990]

c-fos mRNA [6] = assay: brain c-fos mRNA by RT-PCR after pyridostigmine in mice; type: in vivo, mouse; settings: 20 minutes following 2 mg/kg
[7] = tested on: readthrough (I4) AChEmRNA; assay: readthrough (I4) AChEmRNA by RT-PCR / in situ hybridization; type: cell-based, mouse
Source text: FIG. 7A are photographs showing kinetic follow-up of RT-PCR: Positions of primer pairs specific for the alternatively spliced AChEmRNA subtypes are presented on the left. [Primer pair 1361+/1869- ("E6") detects mRNA encoding the synaptic AChE form; […] ("I4/E5") detects both a 549 bp product of readthrough AChEmRNA and a 432 bp product encoding the GPI-lined red blood cell (RBC) form of the enzyme]. Note that both in vivo stress and in vitro AChE inhibition promoted significant increases of the readthrough (I4) but not the synaptic (E6) or erythrocyte (E5) forms of AChEmRNA. […] Signals were detected using alkaline phosphatase-streptavidin conjugates and Fast Red as a substrate. Shown are cortical layers II-V (upper panels), and magnified pyramidal neurons of cortical layer no. 2 (lower panels).
Selective induction of readthrough AChEmRNA following stress and AChE inhibition were measured using kinetic follow-up of RT-PCR. The positions of primer pairs specific for the alternatively spliced AChEmRNA subtypes are presented on the left of the FIG. 7. [Primer pair 1361+/1869- ("E6") detects mRNA encoding the synaptic AChE form; 1361+/175- ("I4/E5") detects both a 549 bp product of readthrough AChEmRNA and a 432 bp product encoding the GPI-lined red blood cell (RBC) form of the enzyme]. Both in vivo stress (forced swimming) and in vitro AChE inhibition promoted significant increases of the readthrough (I4) but not the synaptic (E6) or erythrocyte (E5) forms of AChEmRNA. […] Signals were detected using alkaline phosphatase-streptavidin conjugates and Fast Red as a substrate. […] 2 (lower panels).

[8] = similar regimen; cited from earlier work
[9] = PNS symptoms questionnaire, pyridostigmine in humans
AChE mRNA = assay: brain AChE mRNA by RT-PCR after pyridostigmine in mice; type: in vivo, mouse; settings: pyridostigmine administration, FIG. 10A lower panel
[10] = cited from earlier work
serum BuChE [11] = settings: 0.1-0.5 mg/kg; cited from earlier work
synaptophysin mRNA = synaptophysin mRNA control test, in vivo or in brain slices; type: cell-based
[12] = remark: listed apart in the source
Protocol: Symptoms were reported at the end of the study. […] Percent inhibition (standard deviation was calculated in comparison to the average activity calculated in non-injected, not-stressed (n=12) and stressed (n=6) animals.
In both human studies each individual was asked to report on a yes/no questionnaire regarding symptoms related to the drug.

serum BuChE [13] = settings: cited from earlier work
[14] = HRP penetration into brain following swim stress (immunohistochemistry)

Compound: CC(C)NC[C@H](O)COc1cccc2ccccc12 (racemic) [propanolol]
- time for body temperature to return to normal (post injection): ≤ 80 min
- time of reduction in body temperature (pyridostigmine alone or together with propanolol): ≤ 40 min

Compound: CC(=O)OCOC(=O)CN(CC(=O)OCOC(C)=O)c1ccccc1OCCOc1ccccc1N(CC(=O)OCOC(C)=O)CC(=O)OCOC(C)=O [BAPTA-AM]
- physostigmine-induced prolongation of paired-pulse facilitation (hippocampal slices; 1 uM physostigmine and 1 uM BAPTA-AM, 1 hour): complete prevention
- enhanced paired-pulse facilitation (hippocampal slices; BAPTA-AM, FIG. 5A): prevented
- anti-cholinesterase-induced change in c-fos mRNA (c-fos mRNA [1]): attenuated; also recorded: suppressed
- anti-cholinesterase-induced change in ChAT mRNA (ChAT or VAChT mRNA): attenuated; also recorded: suppressed

Compound: NCCc1ccc(O)c(O)c1 [DA]
- enhancement of the body temperature reduction by coinjection (DA 1.0 mg/kg with pyridostigmine 0.6 mg/kg): approximately 0.5 °C

Compound: Cc1cc(-c2ccc(/N=N/c3ccc4c(S(=O)(=O)O)cc(S(=O)(=O)O)c(N)c4c3O)c(C)c2)ccc1/N=N/c1ccc2c(S(=O)(=O)O)cc(S(=O)(=O)O)c(N)c2c1O [Evans-blue]
- BBB permeability to Evans Blue ([2]; following stress or 10 minutes after ip adrenaline or atropine): enhanced BBB permeability
- increase in brain penetration of Evans-blue under stress [3]: > 10 fold

Compound: CNCC(O)c1ccc(O)c(O)c1 (centres unmarked) [adrenaline]
- effectiveness in opening the BBB compared with stress ([2]; administered doses and time course, atropine or adrenaline ip): somewhat less effective

Compound: CN1[C@@H]2CC[C@H]1C[C@@H](OC(=O)C(CO)c1ccccc1)C2 (some centres unmarked) [atropine]
- both phases of physostigmine-mediated hyperactivity [4]: blocked
- suppression 1 hour after removal of atropine [4]: no suppression took place

Compound: C[N+](C)(C)CCOC(N)=O [carbachol]
- amplitude of population spikes [4]: increased the amplitude of population spikes
- signal increase by carbamylcholine [4]: dose-dependent increases in signal

Compound: CNC(=O)Oc1ccc2c(c1)[C@]1(C)CCN(C)[C@@H]1N2C [physostigmine]
- paired-pulse facilitation responses, 1 hour (hippocampal slices; 1 mM physostigmine, 1 hour): prolonged duration and the intense signals of facilitation responses
- paired-pulse facilitation responses, 3 hours (hippocampal slices; 1 mM physostigmine, 3 hours): suppression of both these responses
- responsiveness of cholinergic pathways to stimulation [4]: prominently muted, approaching that displayed by control slices
- reduction of serum BuChE activity from normal levels [5]: 22.6+/-5.4%

Compound: CN(C)C(=O)Oc1ccc[n+](C)c1 [pyridostigmine]
- amount of c-fos and AChE mRNA (earlier appearance of PCR product) (c-fos mRNA [6]): increase in the amount of c-fos (upper panel) and AChE mRNA (lower panel)
- subcellular localization of I4-AChEmRNA ([7]; pyridostigmine 2 mg/kg): shifted from around the nucleus under control conditions to the entire cell bodies and their apical dendrites
- I4-AChEmRNA labeling of cortical layers ([7]; pyridostigmine 2 mg/kg, control: layers II+V): intensified and included layer III+IV
- readthrough AChE mRNA labeling of somata and apical dendrites, all cortical layers ([7]; pyridostigmine exposure): intensely labeled
- frequency of reported CNS symptoms, increase during the Gulf War [8]: > 3 fold
- soldiers reporting PNS symptoms, average ([9]; Gulf War, 213 soldiers): 11.4%
- soldiers reporting PNS symptoms, range ([9]; Gulf War, 213 soldiers): 6.1-20.4%
- participants reporting PNS symptoms, average ([9]; peace time, double-blind): 18.8%
- participants reporting PNS symptoms, range ([9]; peace time, double-blind): 5.5-38.9%
- amplitude and rate of rise of evoked population spikes in CA1 [4]: increase in the amplitude and rate of rise of evoked population spikes
- AChE mRNA product appearance (AChE mRNA): earlier appearance
- CNS functions in primates ([10]; doses >1 mg/kg): perturb CNS functions
- CNS functions in non-stressed primates or humans at peace time ([10]; non-stressed): unaffected CNS functions
- inhibition of serum BuChE activity at protective doses (serum BuChE [11]): 15-30%
- synaptophysin mRNA (synaptophysin mRNA): no change
- soldiers reporting CNS symptoms, average ([12]; Gulf War, 213 soldiers): 23.6%
- soldiers reporting CNS symptoms, range ([12]; Gulf War, 213 soldiers): 6.2-53.4%
- participants reporting CNS symptoms, average ([12]; peace time, double-blind): 8.3%
- participants reporting CNS symptoms, range ([12]; peace time, double-blind): 0-16.6%
- inhibition efficacy of serum butyrylcholinesterase, Gulf War (serum BuChE [13]): not modified
- reduction of serum BuChE activity from normal levels [5]: 16.7+/-6.9%
- BuChE inhibition in stressed mice ([5]; stressed mice, 0.1 mg/kg): tendency toward limitation of BuChE inhibition

Compound: HRP: horseradish peroxidase, used to study changes in the BBB
- HRP staining of the hippocampus ([14]; following forced swimming): highest number of stained cells; also recorded: strong HRP staining
- penetration of HRP into brain ([14]; forced swimming stress): increased penetration
- HRP staining, Corpus callosum, non-stressed control ([14]; non-stressed control): little staining
- HRP staining, Hippocampus, CA1-2, non-stressed control ([14]; non-stressed control): no staining
- HRP staining, Medial hypothalamus (arcuate nucleus), non-stressed control ([14]; non-stressed control): + (diffuse staining)
- HRP staining, Hippocampus, CA1-2, stressed ([14]; stressed): staining of cells
- HRP staining of central nucleus of amygdala and paraventricular nucleus of hypothalamus ([14]; stressed mice): absence of HRP staining
